Source: the supplement of paper PMC10307832

What was measured:
Assay in all cases: relative viability (nuclei count vs DMSO), 5 days (fraction); higher = more cells survive
[1] = compound: CC1=CC(=NN1)NC2=CC(=NC(=N2)/C=C/C3=CC=CC=C3)N4CCN(CC4)C + C[C@]1(O)C[C@@H](c2nc(-c3ccc4ccc(-c5ccccc5)nc4c3)c3c(N)nccn32)C1 [Linsitinib] (partner 1 µM)
In short: (§1)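 Lung cancer cell lines were seeded in 1536-well plates and dosed by pin tool the next day, with either a single drug or a fixed anchor-drug dose combined with five library-drug doses (not always all listed) spaced in √10 steps. Five days later, one step fixed the cells and stained their nuclei (final 0.05% Triton X-100, 1% formaldehyde, 1 ug/ml Hoechst), and nuclei were counted on 4× images. Relative viability is the nuclei count in treated wells divided by the count in vehicle wells, and each value is the median of duplicate plates.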

[2] = compound: CC1=CC(=NN1)NC2=CC(=NC(=N2)/C=C/C3=CC=CC=C3)N4CCN(CC4)C + Cc1nc(NC(=O)N2CCC[C@H]2C(N)=O)sc1-c1ccnc(C(C)(C)C(F)(F)F)c1 [Alpelisib] (partner 2 µM)
In short: as §1

Obatoclax + Navitoclax = compound: COC1=CC(c2cc3ccccc3[nH]2)=N/C1=C\c1[nH]c(C)cc1C [Obatoclax] + CC1(C)CCC(c2ccc(Cl)cc2)=C(CN2CCN(c3ccc(C(=O)NS(=O)(=O)c4ccc(N[C@H](CCN5CCOCC5)CSc5ccccc5)c(S(=O)(=O)C(F)(F)F)c4)cc3)CC2)C1 [Navitoclax] (partner 0.5 µM)
In short: as §1

Obatoclax + Vorinostat = compound: COC1=CC(c2cc3ccccc3[nH]2)=N/C1=C\c1[nH]c(C)cc1C [Obatoclax] + O=C(CCCCCCC(=O)Nc1ccccc1)NO [Vorinostat] (partner 1 µM)
In short: as §1

With NCI-H1793 the relative viability ([1]; first compound 0.08 µM) was 0.904, the relative viability ([1]; first compound 0.253 µM) was 1.32 and the relative viability ([1]; first compound 0.8 µM) was 0.828. The relative viability ([1]; first compound 2.53 µM) was 0.432, the relative viability ([1]; first compound 8 µM) was 0.108 and the relative viability ([2]; first compound 0.08 µM) was 0.679. It also gave a relative viability ([2]; first compound 0.253 µM) of 0.758, a relative viability ([2]; first compound 0.8 µM) of 0.654 and a relative viability ([2]; first compound 2.53 µM) of 0.398. For the same cell line, the relative viability ([2]; first compound 8 µM) was 0.124, the relative viability (Obatoclax + Navitoclax; first compound 0.01 µM) was 0.337 and the relative viability (Obatoclax + Navitoclax; first compound 0.03162 µM) was 0.291. It also gave a relative viability (Obatoclax + Navitoclax; first compound 0.1 µM) of 0.51, a relative viability (Obatoclax + Navitoclax; first compound 0.3162 µM) of 0.422 and a relative viability (Obatoclax + Navitoclax; first compound 1 µM) of 0.47. It also gave a relative viability (Obatoclax + Vorinostat; first compound 0.01 µM) of 0.725, a relative viability (Obatoclax + Vorinostat; first compound 0.03162 µM) of 0.71 and a relative viability (Obatoclax + Vorinostat; first compound 0.1 µM) of 0.714. It also gave a relative viability (Obatoclax + Vorinostat; first compound 0.3162 µM) of 0.711 and a relative viability (Obatoclax + Vorinostat; first compound 1 µM) of 0.722.

NCI-H2347 gave a relative viability ([1]; first compound 0.08 µM) of 0.844, a relative viability ([1]; first compound 0.253 µM) of 1.05 and a relative viability ([1]; first compound 0.8 µM) of 0.99. For the same cell line, the relative viability ([1]; first compound 2.53 µM) was 0.93, the relative viability ([1]; first compound 8 µM) was 0.614 and the relative viability ([2]; first compound 0.08 µM) was 1.06. It also gave a relative viability ([2]; first compound 0.253 µM) of 1.15, a relative viability ([2]; first compound 0.8 µM) of 1.07 and a relative viability ([2]; first compound 2.53 µM) of 0.915. It also gave a relative viability ([2]; first compound 8 µM) of 0.517, a relative viability (Obatoclax + Navitoclax; first compound 0.01 µM) of 0.724 and a relative viability (Obatoclax + Navitoclax; first compound 0.03162 µM) of 0.781. For the same cell line, the relative viability (Obatoclax + Navitoclax; first compound 0.1 µM) was 0.698, the relative viability (Obatoclax + Navitoclax; first compound 0.3162 µM) was 0.602 and the relative viability (Obatoclax + Navitoclax; first compound 1 µM) was 0.877. It also gave a relative viability (Obatoclax + Vorinostat; first compound 0.01 µM) of 0.633, a relative viability (Obatoclax + Vorinostat; first compound 0.03162 µM) of 0.71 and a relative viability (Obatoclax + Vorinostat; first compound 0.1 µM) of 0.514. For the same cell line, the relative viability (Obatoclax + Vorinostat; first compound 0.3162 µM) was 0.54 and the relative viability (Obatoclax + Vorinostat; first compound 1 µM) was 0.465.

With A-427 the relative viability ([1]; first compound 0.08 µM) was 1.2, the relative viability ([1]; first compound 0.253 µM) was 1.16 and the relative viability ([1]; first compound 0.8 µM) was 1.09. The relative viability ([1]; first compound 2.53 µM) was 0.87, the relative viability ([1]; first compound 8 µM) was 0.305 and the relative viability ([2]; first compound 0.08 µM) was 1.08. For the same cell line, the relative viability ([2]; first compound 0.253 µM) was 1.15, the relative viability ([2]; first compound 0.8 µM) was 1.07 and the relative viability ([2]; first compound 2.53 µM) was 0.716. The relative viability ([2]; first compound 8 µM) was 0.133, the relative viability (Obatoclax + Navitoclax; first compound 0.01 µM) was 0.864 and the relative viability (Obatoclax + Navitoclax; first compound 0.03162 µM) was 0.917. It also gave a relative viability (Obatoclax + Navitoclax; first compound 0.1 µM) of 0.95, a relative viability (Obatoclax + Navitoclax; first compound 0.3162 µM) of 0.986 and a relative viability (Obatoclax + Navitoclax; first compound 1 µM) of 0.959. It also gave a relative viability (Obatoclax + Vorinostat; first compound 0.01 µM) of 0.839, a relative viability (Obatoclax + Vorinostat; first compound 0.03162 µM) of 0.836 and a relative viability (Obatoclax + Vorinostat; first compound 0.1 µM) of 0.741. It also gave a relative viability (Obatoclax + Vorinostat; first compound 0.3162 µM) of 0.835 and a relative viability (Obatoclax + Vorinostat; first compound 1 µM) of 0.664.

HCC-366 showed a relative viability ([1]; first compound 0.08 µM) of 0.478, a relative viability ([1]; first compound 0.253 µM) of 1.13 and a relative viability ([1]; first compound 0.8 µM) of 0.64. The relative viability ([1]; first compound 2.53 µM) was 0.102, the relative viability ([1]; first compound 8 µM) was 0.0084 and the relative viability ([2]; first compound 0.08 µM) was 0.376. The relative viability ([2]; first compound 0.253 µM) was 0.646, the relative viability ([2]; first compound 0.8 µM) was 0.363 and the relative viability ([2]; first compound 2.53 µM) was 0.0741. The relative viability ([2]; first compound 8 µM) was 0.0115, the relative viability (Obatoclax + Navitoclax; first compound 0.01 µM) was 0.969 and the relative viability (Obatoclax + Navitoclax; first compound 0.03162 µM) was 1.03. For the same cell line, the relative viability (Obatoclax + Navitoclax; first compound 0.1 µM) was 1.05, the relative viability (Obatoclax + Navitoclax; first compound 0.3162 µM) was 0.988 and the relative viability (Obatoclax + Navitoclax; first compound 1 µM) was 1.01. The relative viability (Obatoclax + Vorinostat; first compound 0.01 µM) was 0.352, the relative viability (Obatoclax + Vorinostat; first compound 0.03162 µM) was 0.398 and the relative viability (Obatoclax + Vorinostat; first compound 0.1 µM) was 0.312. It also gave a relative viability (Obatoclax + Vorinostat; first compound 0.3162 µM) of 0.353 and a relative viability (Obatoclax + Vorinostat; first compound 1 µM) of 0.191.

Cell Line HCC-78 has a relative viability ([1]; first compound 0.08 µM) of 0.42, a relative viability ([1]; first compound 0.253 µM) of 0.568 and a relative viability ([1]; first compound 0.8 µM) of 0.494. The relative viability ([1]; first compound 2.53 µM) was 0.391, the relative viability ([1]; first compound 8 µM) was 0.152 and the relative viability ([2]; first compound 0.08 µM) was 0.315. For the same cell line, the relative viability ([2]; first compound 0.253 µM) was 0.371, the relative viability ([2]; first compound 0.8 µM) was 0.295 and the relative viability ([2]; first compound 2.53 µM) was 0.275. The relative viability ([2]; first compound 8 µM) was 0.117, the relative viability (Obatoclax + Navitoclax; first compound 0.01 µM) was 0.81 and the relative viability (Obatoclax + Navitoclax; first compound 0.03162 µM) was 0.807. For the same cell line, the relative viability (Obatoclax + Navitoclax; first compound 0.3162 µM) was 0.575, the relative viability (Obatoclax + Navitoclax; first compound 1 µM) was 0.668 and the relative viability (Obatoclax + Vorinostat; first compound 0.01 µM) was 0.384. For the same cell line, the relative viability (Obatoclax + Vorinostat; first compound 0.03162 µM) was 0.441, the relative viability (Obatoclax + Vorinostat; first compound 0.1 µM) was 0.551 and the relative viability (Obatoclax + Vorinostat; first compound 0.3162 µM) was 0.438. For the same cell line, the relative viability (Obatoclax + Vorinostat; first compound 1 µM) was 0.527.

Work on PC-14 yielded a relative viability ([1]; first compound 0.08 µM) of 0.906, a relative viability ([1]; first compound 0.253 µM) of 1.01 and a relative viability ([1]; first compound 0.8 µM) of 0.892. For the same cell line, the relative viability ([1]; first compound 2.53 µM) was 0.77, the relative viability ([1]; first compound 8 µM) was 0.107 and the relative viability ([2]; first compound 0.08 µM) was 0.915. For the same cell line, the relative viability ([2]; first compound 0.253 µM) was 0.85, the relative viability ([2]; first compound 0.8 µM) was 0.322 and the relative viability ([2]; first compound 2.53 µM) was 0.749. The relative viability ([2]; first compound 8 µM) was 0.124, the relative viability (Obatoclax + Navitoclax; first compound 0.01 µM) was 0.968 and the relative viability (Obatoclax + Navitoclax; first compound 0.03162 µM) was 1.07. The relative viability (Obatoclax + Navitoclax; first compound 0.1 µM) was 0.962, the relative viability (Obatoclax + Navitoclax; first compound 0.3162 µM) was 0.847 and the relative viability (Obatoclax + Navitoclax; first compound 1 µM) was 0.128. For the same cell line, the relative viability (Obatoclax + Vorinostat; first compound 0.01 µM) was 0.625, the relative viability (Obatoclax + Vorinostat; first compound 0.03162 µM) was 0.736 and the relative viability (Obatoclax + Vorinostat; first compound 0.1 µM) was 0.696. The relative viability (Obatoclax + Vorinostat; first compound 0.3162 µM) was 0.341 and the relative viability (Obatoclax + Vorinostat; first compound 1 µM) was 0.0549.
